≈ marks a conversion by molar mass, not a printed value.
Columns and labels:
[1] = ordinary temperatures; cited from earlier work
[2] = saturated concentration (solubility) of cilostazol in aqueous cyclodextrin solutions, determined by HPLC; type: physicochemical; details: aqueous with cosolvent or surfactant or cyclodextrin, thermodynamic from solid; excess cilostazol in water for injection with the row's cyclodextrin compound at the row's concentration (g/L); shaken at 60° C. for 24 hours, membrane filtered, HPLC of filtrate
Experimental: Each of the following cyclodextrin compounds was dissolved in water for injection. To this, an excess amount of cilostazol was added and the mixture was shaken at 60° C. for 24 hours. Then, the mixture was filtered through a membrane filter to remove insoluble materials and the amount of cilostazol in the filtrate was determined by the method of HPLC (High Performance Liquid Chromatography) to calculate the saturated concentration (solubility). Cyclodextrin compounds used were alpha-cyclodextrin (Trade Name: Celdex A-100, manufactured by NIHON SHOKUHIN KAKO Co. Ltd., beta-cyclodextrin (Trade Name: Celdex B-100, manufactured by NIHON SHOKUHIN KAKO Co. Ltd.), gamma-cyclodextrin (Trade Name: Celdex C-100, manufactured by NIHON SHOKUHIN KAKO Co. Ltd.), 6-O-alpha-maltosyl-beta-cyclodextrin (manufactured by Ensuiko Sugar Refining Co., Ltd), 2-hydroxypropyl-beta-cyclodextrin (Trade Name: Celdex HP-beta-CD, manufactured by NIHON SHOKUHIN KAKO Co. Ltd), hepta-substituted sulfobutylether-beta-cyclodextrin sodium salt (hereinafter abbreviated as SBE7-beta-CD)(Trade Name: Captisol, manufactured by CyDex Inc.).
Also, as a Reference Example, the solubility of cilostazol without addition of cyclodextrin compounds was determined similarly.

In the case of `O=C1CCc2cc(OCCCCc3nnnn3C3CCCCC3)ccc2N1` [Cilostazol, 6-[4-(1-cyclohexyl-1,2,3,4-Tetrazol-5-yl)butoxy]-3,4-dihydrocarbostyril], the solubility in water [1] is listed as “about 3 μg/ml” and the solubility at 24 h [2] is listed as 3.5 µg/mL (≈ 9.47 µM).

Source: US20040209843A1, “Aqueous cilostazol preparation for injection” (priority 2001, published 2004)
